Assay results reported in US20200317660A1, “Quinazolinone Compound and Application Thereof” (LUOXIN PHARMACEUTICAL (SHANGHAI) CO., LTD., priority 2017, published 2020).

Assays:
Type in all cases: biochemical
PI3Kβ = molecular target: T1, PI3Kβ (Homo sapiens, UniProt P42338); assay: In vitro test of enzyme activity (ADP-Glo lipokinase), PI3K beta; details: 40 μM ATP, 50 μM PIP2:3PS, 120 min
T1 construct: purchased Promega V1751
Protocol: (§1) 1. In Vitro Test of Enzyme Activity
(§2) The lipokinase reaction was carried out under the conditions of a suitable substrate and ATP, followed by two steps to detect the kinase activity with the ADP-Glo™ kit. The first step was terminating the kinase reaction, wherein the remaining ATP was completely removed and only ADP was left; the second step was adding kinase detection reagents to convert ADP to ATP, accompanied by luciferin/luciferase reaction. Finally, the output value of fluorescence value was converted into kinase activity.
(§3) Experimental materials and equipments:
(§4) 2. Kit: ADP-Glo™ Lipokinase and PIP2:3PS Kit (Promega # V1792)
(§5) The kit contains: 1 mM PIP2:3PS, 10× lipid dilution buffer, 1 M magnesium chloride, 10 mM ATP, 10 mM ADP, ADP-Glo reagent, detection buffer and detection substrate.
(§6) 3. Reaction plate: OptiPlate-384, white and transparent (PerkinElmer #6007299).
(§7) 1. 10× reaction buffer: 500 mM HEPES, pH 7.5, 500 mM NaCl, 9 mM MgCl2; BSA: 10% stock solution, homemade.
(§8) 2. Final test system conditions: 1× reaction system: 50 mM HEPES, 50 mM NaCl, 3 mM MgCl2, 0.01% BSA (freshly prepared on the day of the experiment), 1% DMSO (v/v)+/−compound
(§9) 3. Reaction system: 3 μL mixture of the enzyme and the substrate (1:1)+2 μL ATP/MgCl2 mixture+5 μL ADP-Glo reagent+10 μL detection reagent.
(§10) The detailed experimental procedures are as follows:
(§11) 1. Compound dilution: 50 nL 100×compound/DMSO was transferred to the test well plate with Echo. • For PI3Kα, the compound was diluted three-fold from the highest concentration of 0.111 mM for a total of 10 concentrations. • For PI3Kβ/PI3Kδ/PI3Kγ, the compound was three-fold diluted from the highest concentration of 1.11 mM for a total of 10 concentrations.
(§12) (1) The compound to be tested was prepared and 50 nL of 100 plus compound solution or DMSO was added to the corresponding well plate.
(§13) (2) 3.33 plate reaction buffer was prepared.
(§14) (3) 3.33 solution PIP2:3PS was prepared, PIP2:3PS was thawed for at least 1 minute before use.
(§15) (4) 2.5 mM containing 5.25 mM MgCl2 was prepared.
(§16) (5) 3.33 PI3Kα/PI3Kβ/PI3Kδ/PI3Kγ solution was prepared.
(§17) (6) The lipokinase solution and the PIP2:3PS solution were mixed in a volume ratio of 1:1.
(§18) (7) 3.33: lipokinase buffer and PIP2:3PS solution were mixed in a volume ratio of 1:1.
(§19) (8) 3 μL of buffer solution and PIP2:3PS were added to the first and the second columns of the well plate.
(§20) (9) 3 μL of the mixed solution of the enzyme and PIP2:3PS was added to the wells except the first and the second columns, centrifuged for 10 seconds (1000 rpm) and incubated at 23° C. for 20 minutes.
(§21) (10) 2 μL […] was added and well was shaken.
(§22) (11) The well plate was covered and shaken for about 30 s, then the well plate was incubated at 23° C. for 2 hours.
(§23) (12) 5 μL of ADP-Glo reagent containing 10 mM MgCl2 was added.
(§24) (13) The well plate was centrifuged at 1000 rpm for 10 seconds, and the well plate was then covered, shaken for about 30 seconds, and incubated at 23° C. for 60 minutes.
(§25) (14) 10 μL kinase detection reagent was added.
(§26) (15) The well plate was centrifuged at 1000 rpm for 10 seconds, and then incubated at 23° C. for 60 minutes.
(§27) (16) The fluorescence value was measured on the Envision instrument.

PI3Kα = molecular target: T2, PI3Kα (Homo sapiens, UniProt P42336); assay: In vitro test of enzyme activity (ADP-Glo lipokinase), PI3K alpha; details: 40 μM ATP, 50 μM PIP2:3PS, 120 min
T2 construct: purchased Millipore 14-602-K
T2 sequence (P42336 whole entry): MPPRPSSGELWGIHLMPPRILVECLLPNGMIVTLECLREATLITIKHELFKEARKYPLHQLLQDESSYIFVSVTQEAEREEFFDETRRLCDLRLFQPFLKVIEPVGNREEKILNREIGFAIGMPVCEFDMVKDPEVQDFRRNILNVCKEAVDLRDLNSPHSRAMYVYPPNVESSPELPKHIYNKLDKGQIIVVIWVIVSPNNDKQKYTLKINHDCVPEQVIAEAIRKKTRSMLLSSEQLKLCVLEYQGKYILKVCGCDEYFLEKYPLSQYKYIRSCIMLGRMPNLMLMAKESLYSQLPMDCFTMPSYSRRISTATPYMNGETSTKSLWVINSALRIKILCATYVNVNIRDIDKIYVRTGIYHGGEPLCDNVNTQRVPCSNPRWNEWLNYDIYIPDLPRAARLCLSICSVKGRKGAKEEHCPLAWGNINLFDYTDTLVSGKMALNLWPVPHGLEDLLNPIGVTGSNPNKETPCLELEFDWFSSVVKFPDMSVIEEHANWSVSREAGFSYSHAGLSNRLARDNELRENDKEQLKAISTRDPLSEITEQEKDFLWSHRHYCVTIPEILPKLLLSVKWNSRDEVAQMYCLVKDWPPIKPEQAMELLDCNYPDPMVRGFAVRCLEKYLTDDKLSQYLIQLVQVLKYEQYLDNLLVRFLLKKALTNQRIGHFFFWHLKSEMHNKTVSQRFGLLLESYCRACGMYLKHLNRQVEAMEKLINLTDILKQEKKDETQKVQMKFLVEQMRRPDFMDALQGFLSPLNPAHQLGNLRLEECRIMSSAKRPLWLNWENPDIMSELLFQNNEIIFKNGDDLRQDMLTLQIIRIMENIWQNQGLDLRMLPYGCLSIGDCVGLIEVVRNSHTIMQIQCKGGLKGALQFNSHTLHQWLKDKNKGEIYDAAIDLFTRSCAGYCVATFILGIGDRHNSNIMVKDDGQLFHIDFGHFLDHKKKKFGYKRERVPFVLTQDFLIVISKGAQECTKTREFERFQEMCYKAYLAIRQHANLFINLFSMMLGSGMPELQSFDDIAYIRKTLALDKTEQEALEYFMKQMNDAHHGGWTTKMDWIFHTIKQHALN
T2 sequence (P27986 whole entry partner): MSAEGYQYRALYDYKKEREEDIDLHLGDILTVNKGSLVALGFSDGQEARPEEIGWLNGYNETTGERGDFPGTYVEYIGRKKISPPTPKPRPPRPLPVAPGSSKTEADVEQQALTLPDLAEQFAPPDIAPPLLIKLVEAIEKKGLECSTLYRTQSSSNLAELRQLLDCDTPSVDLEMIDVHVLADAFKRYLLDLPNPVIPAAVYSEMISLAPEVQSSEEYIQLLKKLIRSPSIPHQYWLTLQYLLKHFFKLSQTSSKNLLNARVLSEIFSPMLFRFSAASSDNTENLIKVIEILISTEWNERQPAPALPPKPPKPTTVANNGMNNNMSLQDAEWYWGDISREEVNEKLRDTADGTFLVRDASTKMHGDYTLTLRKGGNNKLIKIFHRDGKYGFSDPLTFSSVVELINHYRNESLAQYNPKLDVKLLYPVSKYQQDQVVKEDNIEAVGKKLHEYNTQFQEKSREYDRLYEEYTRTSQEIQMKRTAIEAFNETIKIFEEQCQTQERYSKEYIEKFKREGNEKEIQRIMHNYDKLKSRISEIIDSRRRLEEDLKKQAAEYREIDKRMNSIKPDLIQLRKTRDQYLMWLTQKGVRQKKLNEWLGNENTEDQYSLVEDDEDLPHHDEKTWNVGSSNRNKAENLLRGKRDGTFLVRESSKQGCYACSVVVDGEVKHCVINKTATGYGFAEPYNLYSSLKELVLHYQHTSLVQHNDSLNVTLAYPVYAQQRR
Protocol: as §1, §2, §3, §4, §5, §6, §7, §8, §9, §10, §11, §12, §13, §14, §15, §16, §17, §18, §19, §20, §21, §22, §23, §24, §25, §26, §27

PI3Kγ = molecular target: T3, PI3Kγ (Homo sapiens, UniProt P48736); assay: In vitro test of enzyme activity (ADP-Glo lipokinase), PI3K gamma; details: 25 μM ATP, 50 μM PIP2:3PS, 120 min
T3 construct: purchased Millipore 14-558-K
T3 sequence (P48736 whole entry): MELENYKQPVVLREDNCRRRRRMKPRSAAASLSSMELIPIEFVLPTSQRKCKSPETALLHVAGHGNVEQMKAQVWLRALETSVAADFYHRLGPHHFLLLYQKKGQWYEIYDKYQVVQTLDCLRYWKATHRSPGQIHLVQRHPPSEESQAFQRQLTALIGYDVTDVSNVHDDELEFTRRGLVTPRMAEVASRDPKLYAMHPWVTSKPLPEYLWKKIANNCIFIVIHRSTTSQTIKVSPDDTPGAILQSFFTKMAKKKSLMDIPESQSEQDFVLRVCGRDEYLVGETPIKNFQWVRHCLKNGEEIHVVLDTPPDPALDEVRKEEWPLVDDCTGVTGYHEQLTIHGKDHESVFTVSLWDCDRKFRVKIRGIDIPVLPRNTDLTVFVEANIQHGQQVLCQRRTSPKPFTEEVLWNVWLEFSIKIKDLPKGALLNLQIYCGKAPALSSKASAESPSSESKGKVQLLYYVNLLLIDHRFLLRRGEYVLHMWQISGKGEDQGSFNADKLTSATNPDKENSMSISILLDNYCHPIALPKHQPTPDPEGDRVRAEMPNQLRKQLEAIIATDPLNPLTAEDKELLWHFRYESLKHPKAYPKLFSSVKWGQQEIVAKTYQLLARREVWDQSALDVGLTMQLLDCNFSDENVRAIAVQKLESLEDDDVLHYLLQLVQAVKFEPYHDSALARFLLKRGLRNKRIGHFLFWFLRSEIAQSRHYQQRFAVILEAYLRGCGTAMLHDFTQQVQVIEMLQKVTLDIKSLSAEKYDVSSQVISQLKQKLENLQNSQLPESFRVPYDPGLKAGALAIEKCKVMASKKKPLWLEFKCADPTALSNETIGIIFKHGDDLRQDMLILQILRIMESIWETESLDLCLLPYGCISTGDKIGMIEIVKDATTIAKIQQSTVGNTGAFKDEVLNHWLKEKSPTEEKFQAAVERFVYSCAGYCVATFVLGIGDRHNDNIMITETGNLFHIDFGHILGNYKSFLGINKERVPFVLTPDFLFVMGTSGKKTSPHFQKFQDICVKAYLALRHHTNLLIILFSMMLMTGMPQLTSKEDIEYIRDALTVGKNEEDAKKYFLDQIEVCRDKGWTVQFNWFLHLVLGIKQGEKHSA
Protocol: as §1, §2, §3, §4, §5, §6, §7, §8, §9, §10, §11, §12, §13, §14, §15, §16, §17, §18, §19, §20, §21, §22, §23, §24, §25, §26, §27

PI3Kδ = molecular target: T4, PI3Kδ (Homo sapiens, UniProt O00329); assay: In vitro test of enzyme activity (ADP-Glo lipokinase), PI3K delta; details: 40 μM ATP, 50 μM PIP2:3PS, 120 min
T4 construct: purchased Millipore 14-604-K
T4 sequence (O00329 whole entry): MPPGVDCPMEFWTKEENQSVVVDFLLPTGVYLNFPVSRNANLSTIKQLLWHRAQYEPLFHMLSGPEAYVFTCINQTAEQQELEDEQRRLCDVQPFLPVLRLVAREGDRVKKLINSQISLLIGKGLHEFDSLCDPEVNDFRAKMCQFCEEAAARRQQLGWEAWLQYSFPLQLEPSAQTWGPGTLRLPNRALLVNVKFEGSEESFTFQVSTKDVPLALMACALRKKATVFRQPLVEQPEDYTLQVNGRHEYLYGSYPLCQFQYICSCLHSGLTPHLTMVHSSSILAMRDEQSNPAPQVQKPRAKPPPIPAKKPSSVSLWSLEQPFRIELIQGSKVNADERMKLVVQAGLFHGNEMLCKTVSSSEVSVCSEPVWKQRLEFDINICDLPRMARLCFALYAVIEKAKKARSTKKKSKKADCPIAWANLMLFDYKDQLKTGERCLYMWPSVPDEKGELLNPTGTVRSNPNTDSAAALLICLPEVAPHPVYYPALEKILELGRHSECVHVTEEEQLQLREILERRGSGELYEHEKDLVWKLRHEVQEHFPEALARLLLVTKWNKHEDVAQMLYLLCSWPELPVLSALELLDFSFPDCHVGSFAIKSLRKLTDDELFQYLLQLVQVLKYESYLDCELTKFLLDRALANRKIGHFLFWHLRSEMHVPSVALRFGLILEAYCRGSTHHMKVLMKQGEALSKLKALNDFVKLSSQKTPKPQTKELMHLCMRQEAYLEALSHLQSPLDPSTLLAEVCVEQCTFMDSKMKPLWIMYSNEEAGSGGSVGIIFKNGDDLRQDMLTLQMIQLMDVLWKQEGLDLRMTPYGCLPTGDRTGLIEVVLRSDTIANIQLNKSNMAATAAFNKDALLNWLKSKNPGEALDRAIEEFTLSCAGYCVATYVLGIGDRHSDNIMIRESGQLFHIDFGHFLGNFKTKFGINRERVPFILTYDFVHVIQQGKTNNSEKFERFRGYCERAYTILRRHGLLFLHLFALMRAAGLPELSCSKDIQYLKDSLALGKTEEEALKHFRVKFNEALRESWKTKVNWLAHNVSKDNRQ
T4 sequence (P27986 whole entry partner): as the sequence (P27986 whole entry partner) above
Protocol: as §1, §2, §3, §4, §5, §6, §7, §8, §9, §10, §11, §12, §13, §14, §15, §16, §17, §18, §19, §20, §21, §22, §23, §24, §25, §26, §27

T1 sequence (P42338 whole entry): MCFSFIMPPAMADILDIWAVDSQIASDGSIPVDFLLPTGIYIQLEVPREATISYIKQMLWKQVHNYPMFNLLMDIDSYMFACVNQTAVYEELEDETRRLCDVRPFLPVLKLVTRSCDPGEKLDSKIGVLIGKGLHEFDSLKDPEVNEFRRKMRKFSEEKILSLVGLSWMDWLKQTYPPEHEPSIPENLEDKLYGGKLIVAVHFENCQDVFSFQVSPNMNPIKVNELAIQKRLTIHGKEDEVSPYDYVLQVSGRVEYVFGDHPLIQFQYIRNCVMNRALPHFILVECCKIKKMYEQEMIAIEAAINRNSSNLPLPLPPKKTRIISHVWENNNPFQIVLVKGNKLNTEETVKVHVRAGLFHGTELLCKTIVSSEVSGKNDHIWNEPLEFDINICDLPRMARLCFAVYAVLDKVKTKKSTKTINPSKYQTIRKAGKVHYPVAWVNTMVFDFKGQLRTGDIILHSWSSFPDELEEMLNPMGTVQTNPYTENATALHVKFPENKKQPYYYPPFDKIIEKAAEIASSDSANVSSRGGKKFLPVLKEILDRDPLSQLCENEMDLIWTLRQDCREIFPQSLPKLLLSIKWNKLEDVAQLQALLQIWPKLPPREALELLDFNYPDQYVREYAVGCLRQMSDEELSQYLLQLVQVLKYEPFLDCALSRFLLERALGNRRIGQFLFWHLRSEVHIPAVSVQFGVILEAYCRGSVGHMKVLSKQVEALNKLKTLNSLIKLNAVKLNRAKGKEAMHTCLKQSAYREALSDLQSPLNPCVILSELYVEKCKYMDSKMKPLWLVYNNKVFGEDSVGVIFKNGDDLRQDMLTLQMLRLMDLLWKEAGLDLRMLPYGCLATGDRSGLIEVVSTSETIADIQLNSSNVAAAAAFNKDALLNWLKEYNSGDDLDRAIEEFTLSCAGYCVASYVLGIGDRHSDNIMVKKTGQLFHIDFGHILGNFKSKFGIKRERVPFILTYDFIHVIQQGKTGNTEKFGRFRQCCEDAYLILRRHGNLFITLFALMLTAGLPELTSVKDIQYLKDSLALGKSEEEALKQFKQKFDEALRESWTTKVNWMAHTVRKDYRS
T1 sequence (P27986 whole entry partner): as the sequence (P27986 whole entry partner) above

IC50 (PI3Kβ) | IC50 (PI3Kα) | IC50 (PI3Kγ) | IC50 (PI3Kδ) | Structure (SMILES)
0.1 µM | 0.00584 µM | – | – | COC(=O)C(C)Cn1cnc2ccc(-c3cnc(OC)c(NS(=O)(=O)c4ccc(F)cc4Cl)c3)cc2c1=O (single isomer, unassigned) [R005, reference compound]
0.554 µM | 0.00071 µM | 0.0299 µM | 0.0116 µM | CNC(=O)C(C)Cn1cnc2ccc(-c3cnc(C)c(NS(=O)(=O)c4sc(C)nc4C)c3)cc2c1=O (single isomer, unassigned) [WX034]
0.211 µM | 0.008 µM | – | – | CNC(=O)C(C)Cn1cnc2ccc(-c3cnc(OC)c(NS(=O)(=O)c4ccc(F)cc4)c3)cc2c1=O (single isomer, unassigned) [WX088]
0.25 µM | 0.00647 µM | – | – | CNC(=O)C(C)Cn1cnc2ccc(-c3cnc(OC)c(NS(=O)(=O)c4ccc(C)cc4C)c3)cc2c1=O (single isomer, unassigned) [WX092]
0.175 µM | 0.00851 µM | – | – | CNC(=O)C(C)Cn1cnc2ccc(-c3cnc(OC)c(NS(=O)(=O)c4cc(Cl)c(F)cc4F)c3)cc2c1=O (single isomer, unassigned) [WX096]
1.95 µM | 0.0385 µM | – | – | CNC(=O)C(C)Cn1cnc2ccc(-c3cnc(OC)c(NS(=O)(=O)c4cc(C(F)(F)F)cc(C(F)(F)F)c4)c3)cc2c1=O (single isomer, unassigned) [WX104]
0.498 µM | 0.00356 µM | – | – | CNC(=O)C(C)Cn1cnc2ccc(-c3cnc(OC)c(NS(=O)(=O)c4ccc(F)c(C#N)c4)c3)cc2c1=O (single isomer, unassigned) [WX156]
0.287 µM | 0.00581 µM | – | – | CNC(=O)C(C)Cn1cnc2ccc(-c3cnc(OC)c(NS(=O)(=O)c4ccc(F)c(C#N)c4)c3)cc2c1=O (single isomer, unassigned) [WX157]
2.1 µM | 0.0112 µM | – | – | CNC(=O)C(C)Cn1cnc2ccc(-c3cnc(OC)c(NS(=O)(=O)c4ccc(C)c(Cl)c4)c3)cc2c1=O (single isomer, unassigned) [WX160]
0.153 µM | 0.00892 µM | – | – | CNC(=O)C(C)Cn1cnc2ccc(-c3cnc(OC)c(NS(=O)(=O)c4ccc(C)c(Cl)c4)c3)cc2c1=O (single isomer, unassigned) [WX161]
0.222 µM | 0.00578 µM | – | – | CNC(=O)C(C)Cn1cnc2ccc(-c3cnc(OC)c(NS(=O)(=O)c4ccc(F)c(Cl)c4)c3)cc2c1=O (single isomer, unassigned) [WX166]
0.159 µM | 0.013 µM | – | – | CNC(=O)C(C)Cn1cnc2ccc(-c3cnc(OC)c(NS(=O)(=O)c4ccc(F)c(Cl)c4)c3)cc2c1=O (single isomer, unassigned) [WX167]
0.411 µM | 0.0102 µM | – | – | CNC(=O)C(C)Cn1cnc2ccc(-c3cnc(OC)c(NS(=O)(=O)c4ccc(F)cc4C)c3)cc2c1=O (single isomer, unassigned) [WX180]
0.331 µM | 0.00484 µM | – | – | CNC(=O)C(C)Cn1cnc2ccc(-c3cnc(OC)c(NS(=O)(=O)c4cc(C)cc(F)c4)c3)cc2c1=O (single isomer, unassigned) [WX187]
0.451 µM | 0.0126 µM | – | – | CNC(=O)C(C)Cn1cnc2ccc(-c3cnc(OC)c(NS(=O)(=O)c4cc(F)cc(F)c4)c3)cc2c1=O (single isomer, unassigned) [WX193]
0.327 µM | 0.00558 µM | – | – | CNC(=O)C(C)Cn1cnc2ccc(-c3cnc(OC)c(NS(=O)(=O)c4ccc(F)cc4C(F)(F)F)c3)cc2c1=O (single isomer, unassigned) [WX195]
0.527 µM | 0.0225 µM | – | – | CNC(=O)C(C)Cn1cnc2ccc(-c3cnc(OC)c(NS(=O)(=O)c4ccc(OC)cc4)c3)cc2c1=O (single isomer, unassigned) [WX204]
0.119 µM | 0.00249 µM | – | – | CNC(=O)C(C)Cn1cnc2ccc(-c3cnc(OC)c(NS(=O)(=O)c4c(Cl)cccc4Cl)c3)cc2c1=O (single isomer, unassigned) [WX208]
0.176 µM | 0.00408 µM | – | – | CNC(=O)C(C)Cn1cnc2ccc(-c3cnc(OC)c(NS(=O)(=O)c4sccc4C)c3)cc2c1=O (single isomer, unassigned) [WX209]

IC50 (PI3Kβ) | IC50 (PI3Kα) | IC50 (PI3Kγ) | IC50 (PI3Kδ) | Structure (SMILES)
0.201 µM | 0.00452 µM | – | – | CNC(=O)C(C)Cn1cnc2ccc(-c3cnc(OC)c(NS(=O)(=O)c4cc(C)ccc4Cl)c3)cc2c1=O (single isomer, unassigned) [WX213]
0.269 µM | 0.00347 µM | – | – | CNC(=O)C(C)Cn1cnc2ccc(-c3cnc(OC)c(NS(=O)(=O)c4ccc(Cl)cc4C)c3)cc2c1=O (single isomer, unassigned) [WX217]
0.216 µM | 0.00504 µM | – | – | CNC(=O)C(C)Cn1cnc2ccc(-c3cnc(OC)c(NS(=O)(=O)c4ccc(Cl)cc4C)c3)cc2c1=O (single isomer, unassigned) [WX218]
0.276 µM | 0.00536 µM | – | – | CNC(=O)C(C)Cn1cnc2ccc(-c3cnc(OC)c(NS(=O)(=O)c4cccc(C)c4F)c3)cc2c1=O (single isomer, unassigned) [WX219]
0.139 µM | 0.0101 µM | – | – | CNC(=O)C(C)Cn1cnc2ccc(-c3cnc(OC)c(NS(=O)(=O)c4cccc(C)c4F)c3)cc2c1=O (single isomer, unassigned) [WX220]
0.162 µM | 0.00461 µM | – | – | CNC(=O)C(C)Cn1cnc2ccc(-c3cnc(OC)c(NS(=O)(=O)c4cc(Cl)ccc4C)c3)cc2c1=O (single isomer, unassigned) [WX221]
0.1 µM | 0.00377 µM | – | – | CCOC(=O)CCCn1cnc2ccc(-c3cnc(OC)c(NS(=O)(=O)c4ccc(F)cc4Cl)c3)cc2c1=O [R001, reference compound]
0.121 µM | 0.012 µM | – | – | CNC[C@@H](C)Cn1cnc2ccc(-c3cnc(OC)c(NS(=O)(=O)c4ccc(F)cc4Cl)c3)cc2c1=O [R008, reference compound]
0.108 µM | 0.0104 µM | – | – | CNC[C@H](C)Cn1cnc2ccc(-c3cnc(OC)c(NS(=O)(=O)c4ccc(F)cc4Cl)c3)cc2c1=O [R009, reference compound]
0.413 µM | 0.0102 µM | – | – | COc1ncc(-c2ccc3ncn(CC(C)(C)C(N)=O)c(=O)c3c2)cc1NS(=O)(=O)c1ccc(F)cc1Cl [WX020]
0.11 µM | 0.00056 µM | – | – | CNC(=O)C(C)Cn1cnc2ccc(-c3cnc(C(F)(F)F)c(NS(=O)(=O)c4ccc(F)cc4Cl)c3)cc2c1=O (stereo not drawn) [WX084]
0.0733 µM | 0.00147 µM | – | – | CNC(=O)[C@H](C)Cn1cnc2ccc(-c3cnc(OC)c(NS(=O)(=O)c4cc(Cl)ccc4Cl)c3)cc2c1=O [WX182]
0.192 µM | 0.00814 µM | – | – | CNC(=O)[C@@H](C)Cn1cnc2ccc(-c3cnc(OC)c(NS(=O)(=O)c4cc(C)cc(Cl)c4)c3)cc2c1=O [WX184]
0.152 µM | 0.00298 µM | – | – | CNC(=O)[C@H](C)Cn1cnc2ccc(-c3cnc(OC)c(NS(=O)(=O)c4cccc(C)c4Cl)c3)cc2c1=O [WX188]
0.205 µM | 0.0132 µM | – | – | CNC(=O)[C@H](C)Cn1cnc2ccc(-c3cnc(OC)c(NS(=O)(=O)c4ccc(Cl)c(C)c4)c3)cc2c1=O [WX190]
0.199 µM | 0.00486 µM | – | – | COc1ncc(-c2ccc3ncn(CCCC(=O)N4CCCC4)c(=O)c3c2)cc1NS(=O)(=O)c1ccc(F)cc1Cl [WX199]
0.595 µM | 0.0128 µM | – | – | CNC(=O)[C@H](C)Cn1cnc2ccc(-c3cnc(OC)c(NS(=O)(=O)c4ccc(OC)cc4)c3)cc2c1=O [WX203]
0.0973 µM | 0.0037 µM | – | – | CNC(=O)[C@@H](C)Cn1cnc2ccc(-c3cnc(OC)c(NS(=O)(=O)c4ccccc4F)c3)cc2c1=O [WX205]
0.0205 µM | 0.00085 µM | – | – | CNC(=O)[C@@H](C)Cn1cnc2ccc(-c3cnc(OC)c(NS(=O)(=O)c4c(Cl)cccc4Cl)c3)cc2c1=O [WX207]
